Test results published in PubChem BioAssay AID1259407 (Chemical Carcinogenesis Research Information System (CCRIS), 2018).
Activity calls are given as the source filed them. How the calls were made is not given here.

Tested on: CCRIS mutagenicity, Ames/micronucleus/aberration tests
Experiment: CCRIS mutagenicity studies

COS(C)(=O)=O was tested, and the mutagenic call (End Point: IN VITRO MICRONUCLEUS, Test System: CHINESE HAMSTER OVARY CELLS, Metabolic Activation: NONE) was “active; positive”, the mutagenic call (End Point: IN VITRO MICRONUCLEUS, Test System: CHL/IU CELLS, Metabolic Activation: NONE) was “active; positive” and the mutagenic call (End Point: IN VITRO MICRONUCLEUS, Test System: CHO CELLS, Metabolic Activation: RAT, LIVER, S-9, AROCLOR 1254) was “active; positive”. For the same compound, the mutagenic call (End Point: IN VITRO MICRONUCLEUS, Test System: HUMAN FIBROBLASTS VH25 CELLS, Metabolic Activation: NONE) was “active; positive”, the mutagenic call (End Point: IN VITRO MICRONUCLEUS, Test System: MOUSE LYMPHOMA L5178Y CELLS, Metabolic Activation: NONE) was “active; positive” and the mutagenic call (End Point: IN VIVO MICRONUCLEUS, Test System: BONE MARROW POLYCHROMATIC ERYTHROCYTES, Species: MOUSE, Strain/Sex: SWISS/FEMALE, Route: IP) was “active; positive”. The mutagenic call (End Point: IN VIVO MICRONUCLEUS, Test System: HEPATOCYTES, Species: RAT, Strain/Sex: FISHER 344 OR SD/MALE, Route: ORAL OR IP) was “inactive; negative”, the mutagenic call (End Point: IN VIVO MICRONUCLEUS, Test System: PERIPHERAL BLOOD RETICULOCYTES, Species: RAT, Strain/Sex: FISHER 344 OR SD/MALE, Route: ORAL OR IP) was “active; positive” and the mutagenic call (End Point: In vitro micronucleus, Test System: Chinese hamster ovary (CHO) cells, Metabolic Activation: None) was “active; positive (lycopene (10, 25 and 50 um) significantly reduced the number of micron”. For the same compound, the mutagenic call (End Point: In vitro micronucleus, Test System: Chinese hamster ovary (CHO-WBL) cells, Metabolic Activation: None) was “active; positive (p<0.01)”, the mutagenic call (Test System: AMES SALMONELLA TYPHIMURIUM, Strain/Indicator: TA97, Metabolic Activation: NONE, Method: STANDARD PLATE) was “active; positive” and the mutagenic call (Test System: AMES SALMONELLA TYPHIMURIUM, Strain/Indicator: TA97, Metabolic Activation: RAT, LIVER, S-9, AROCLOR 1254, Method: STANDARD PLATE) was “inactive; negative”. For the same compound, the mutagenic call (Test System: AMES SALMONELLA TYPHIMURIUM, Strain/Indicator: TA98, Metabolic Activation: NONE, Method: STANDARD PLATE) was “inactive; negative”, the mutagenic call (Test System: AMES SALMONELLA TYPHIMURIUM, Strain/Indicator: TA98, Metabolic Activation: RAT, LIVER, S-9, AROCLOR 1254, Method: STANDARD PLATE) was “inactive; negative” and the mutagenic call (Test System: AMES SALMONELLA TYPHIMURIUM, Strain/Indicator: TA100, Metabolic Activation: NONE, Method: STANDARD PLATE) was “active; positive”. For the same compound, the mutagenic call (Test System: AMES SALMONELLA TYPHIMURIUM, Strain/Indicator: TA100, Metabolic Activation: RAT, LIVER, S-9, AROCLOR 1254, Method: STANDARD PLATE) was “inactive; negative”, the mutagenic call (Test System: AMES SALMONELLA TYPHIMURIUM, Strain/Indicator: TA1535, Metabolic Activation: NONE, Method: STANDARD PLATE) was “active; positive” and the mutagenic call (Test System: AMES SALMONELLA TYPHIMURIUM, Strain/Indicator: YG7100, Metabolic Activation: NONE, Method: PREINCUBATION) was “inactive; negative”. For the same compound, the mutagenic call (Test System: AMES SALMONELLA TYPHIMURIUM, Strain/Indicator: YG7104, Metabolic Activation: NONE, Method: PREINCUBATION) was “active; positive”, the mutagenic call (Test System: AMES SALMONELLA TYPHIMURIUM, Strain/Indicator: YG7108, Metabolic Activation: NONE, Method: PREINCUBATION) was “active; positive” and the mutagenic call (Test System: AMES SALMONELLA TYPHIMURIUM, Strain/Indicator: YG7112, Metabolic Activation: NONE, Method: PREINCUBATION) was “active; positive”. The mutagenic call (Test System: AMES SALMONELLA TYPHIMURIUM, Strain/Indicator: YG7113, Metabolic Activation: NONE, Method: PREINCUBATION) was “active; positive”, the mutagenic call (Test System: AMES SALMONELLA TYPHIMURIUM, Strain/Indicator: YG7119, Metabolic Activation: NONE, Method: PREINCUBATION) was “active; positive” and the mutagenic call (Test System: CHINESE HAMSTER OVARY, Strain/Indicator: CHO-K1-BH4 (HGPRT)/6-THIOGUANINE, Metabolic Activation: NONE, Method: SUSPENSION/PLATE) was “active; positive”. The mutagenic call (Test System: CHINESE HAMSTER OVARY, Strain/Indicator: CHO-K1-BH4 (HGPRT), Metabolic Activation: NONE, Method: MONOLAYER) was “active; positive”, the mutagenic call (Test System: CHINESE HAMSTER OVARY, Strain/Indicator: CHO-K1-BH4 (HGPRT), Metabolic Activation: NONE, Method: SUSPENSION/PLATE) was “active; positive” and the mutagenic call (Test System: CHINESE HAMSTER V-79, Strain/Indicator: V-79/6-THIOGUANINE, Metabolic Activation: NONE, Method: FLASK ASSAY) was “active; positive”. The mutagenic call (Test System: CHINESE HAMSTER V-79, Strain/Indicator: V-79/6-THIOGUANINE, Metabolic Activation: NONE, Method: STANDARD PLATE) was “active; positive”, the mutagenic call (Test System: CHINESE HAMSTER V-79, Strain/Indicator: V-79/6-THIOGUANINE, Metabolic Activation: NONE, Method: SUSPENSION/PLATE) was “active; positive” and the mutagenic call (Test System: CHINESE HAMSTER V-79, Strain/Indicator: V-79/8-AZAGUANINE, Metabolic Activation: NONE, Method: STANDARD PLATE) was “active; positive”. The mutagenic call (Test System: CHINESE HAMSTER V-79, Strain/Indicator: V-79/OUABAIN, Metabolic Activation: NONE, Method: STANDARD PLATE) was “active; positive”, the mutagenic call (Test System: CHINESE HAMSTER V-79, Strain/Indicator: V-79/OUABAIN, Metabolic Activation: NONE, Method: SUSPENSION/PLATE) was “inactive; negative” and the mutagenic call (Test System: CHO/HGPRT, Strain/Indicator: CHO-K1-BH4, Metabolic Activation: NONE, Method: STANDARD PLATE) was “active; positive”. The mutagenic call (Test System: E. COLI, Strain/Indicator: TK701 (PKM101), Metabolic Activation: NONE, Method: STANDARD PLATE) was “active; positive”, the mutagenic call (Test System: E. COLI, Strain/Indicator: TK701, Metabolic Activation: NONE, Method: STANDARD PLATE) was “active; positive” and the mutagenic call (Test System: E. COLI, Strain/Indicator: TK702 (PKM101), Metabolic Activation: NONE, Method: STANDARD PLATE) was “active; positive”. For the same compound, the mutagenic call (Test System: E. COLI, Strain/Indicator: TK702, Metabolic Activation: NONE, Method: STANDARD PLATE) was “inactive; negative”, the mutagenic call (Test System: E. COLI, Strain/Indicator: WP2, Metabolic Activation: NONE, Method: FLUCTUATION) was “active; positive” and the mutagenic call (Test System: E. COLI, Strain/Indicator: WP2, Metabolic Activation: NONE, Method: PREINCUBATION) was “active; positive”. For the same compound, the mutagenic call (Test System: E. COLI, Strain/Indicator: WP2, Metabolic Activation: NONE, Method: STANDARD PLATE) was “active; positive”, the mutagenic call (Test System: E. COLI, Strain/Indicator: WP2 UVRA, Metabolic Activation: HAMSTER, LIVER, S-9, AROCLOR 1254, Method: STANDARD PLATE) was “active; positive” and the mutagenic call (Test System: E. COLI, Strain/Indicator: WP2 UVRA, Metabolic Activation: HAMSTER, LIVER, S-9, Method: STANDARD PLATE) was “active; positive”. For the same compound, the mutagenic call (Test System: E. COLI, Strain/Indicator: WP2 UVRA, Metabolic Activation: MOUSE, LIVER, S-9, AROCLOR 1254, Method: STANDARD PLATE) was “active; positive”, the mutagenic call (Test System: E. COLI, Strain/Indicator: WP2 UVRA, Metabolic Activation: MOUSE, LIVER, S-9, Method: STANDARD PLATE) was “active; positive” and the mutagenic call (Test System: E. COLI, Strain/Indicator: WP2 UVRA, Metabolic Activation: NONE, Method: FLUCTUATION) was “active; positive”. The mutagenic call (Test System: E. COLI, Strain/Indicator: WP2 UVRA, Metabolic Activation: NONE, Method: PREINCUBATION) was “active; positive”, the mutagenic call (Test System: E. COLI, Strain/Indicator: WP2 UVRA, Metabolic Activation: RAT, LIVER, S-9, AROCLOR 1254, Method: STANDARD PLATE) was “active; positive” and the mutagenic call (Test System: E. COLI, Strain/Indicator: WP2 UVRA, Metabolic Activation: RAT, LIVER, S-9, Method: STANDARD PLATE) was “active; positive”. The mutagenic call (Test System: MOUSE LYMPHOMA, Strain/Indicator: L5178Y (TK+/TK-), Metabolic Activation: NONE, Method: SUSPENSION/PLATE) was “active; positive”, the mutagenic call (Test System: MOUSE LYMPHOMA, Strain/Indicator: L5178Y (TK+/TK-), Metabolic Activation: RAT, LIVER, S-9, AROCLOR 1254, Method: SUSPENSION/PLATE) was “active; positive” and the mutagenic call (Test System: UDS HUMAN CELLS, Strain/Indicator: THY INCORP (NON-S-PHASE), Metabolic Activation: NONE, Method: AUTORADIOGRAPHY) was “active; positive”. For the same compound, the mutagenic call (Test System: UDS HUMAN CELLS, Strain/Indicator: THY INCORP (NON-S-PHASE), Metabolic Activation: NONE, Method: LIQUID SCINTILLATION COUNTING) was “active; positive”, the mutagenic call (Test System: UDS HUMAN KERATINOCYTES, Strain/Indicator: THY INCORP, Metabolic Activation: NONE, Method: AUTORADIOGRAPHY) was “active; positive” and the mutagenic call (Test System: UDS HUMAN LYMPHOCYTES, Strain/Indicator: THY INCORP (NON-S-PHASE), Metabolic Activation: NONE, Method: LIQUID SCINTILLATION COUNTING) was “active; positive”. For the same compound, the mutagenic call (Test System: UDS MONKEY HEPATOCYTES, Strain/Indicator: THY INCORP, Metabolic Activation: AROCLOR 1254, Method: AUTORADIOGRAPHY) was “active; positive”, the mutagenic call (Test System: UDS MONKEY HEPATOCYTES, Strain/Indicator: THY INCORP, Metabolic Activation: NONE, Method: AUTORADIOGRAPHY) was “active; positive” and the mutagenic call (Test System: UDS RAT HEPATOCYTES, Strain/Indicator: BROMODEOXYURIDINE INCORP, Metabolic Activation: NONE, Method: FLOW CYTOMETRIC ANALYSIS) was “active; positive”. The mutagenic call (Test System: UDS RAT HEPATOCYTES, Strain/Indicator: THY INCORP, Metabolic Activation: NONE, Method: AUTORADIOGRAPHY) was “active; positive”, the mutagenic call (Test System: UDS RAT PACHYTENE SPERMATOCYTES, Strain/Indicator: THY INCORP, Metabolic Activation: NONE, Method: LIQUID SCINTILLATION COUNTING) was “active; positive” and the mutagenic call (Test System: UDS RODENT CELLS, Strain/Indicator: THY INCORP (NON-S-PHASE), Metabolic Activation: NONE, Method: AUTORADIOGRAPHY) was “active; positive”. For the same compound, the mutagenic call (Test System: UDS RODENT CELLS, Strain/Indicator: THY INCORP (NON-S-PHASE), Metabolic Activation: NONE, Method: LIQUID SCINTILLATION COUNTING) was “active; positive”, the mutagenic call (Test System: UDS RODENT HEPATOCYTES, Strain/Indicator: THY INCORP (NON-S-PHASE), Method: AUTORADIOGRAPHY) was “active; positive” and the mutagenic call (Test System: UDS RODENT HEPATOCYTES, Strain/Indicator: THY INCORP (NON-S-PHASE), Method: LIQUID SCINTILLATION COUNTING) was “active; positive”. The mutagenic call (Test System: UDS RODENT PRIMARY CELLS, Strain/Indicator: THY INCORP (NON-S-PHASE), Metabolic Activation: NONE, Method: LIQUID SCINTILLATION COUNTING) was “active; positive” and the mutagenic call (Test System: UDS, Strain/Indicator: HEPG2/THYMIDINE INCORPORATION, Metabolic Activation: NONE, Method: AUTORADIOGRAPHY) was “active; positive”.
